Laboratory results published in US20250194601A1, “PYRIDAZINONE COMPOUND OR SALT THEREOF AND PEST CONTROL AGENT CONTAINING IT” (ISHIHARA SANGYO KAISHA, LTD., priority 2022, published 2025).

How the values were obtained:
Format in all cases: in vivo
[1] = test system: green peach aphid (Myzus persicae); test: whole plant or invertebrate; details: in Raphanus sativus, foliar, nymphs, 5th day after the application
Description: Test on effect against green peach aphid (Myzus persicae)
(§1) A Japanese radish leaf was inserted in a test tube in which water was put, and 5 adults of green peach aphid were released on the leaf. On the next day, the adults were removed, and the number of nymphs parasitic on the leaf was counted as the number of tested nymphs, and then the leaf was dipped in a chemical solution of a test compound at a concentration of 200 ppm or 50 ppm. After the chemical solution dried in air, the leaf was left in a constant temperature chamber with lighting at 25° C. On the 5th day after the application, the number of dead nymphs was counted, and the mortality (%) was calculated by the following formula. Nymphs that dropped from the leaf or nymphs that were moribund were counted as dead nymphs.
Mortality (%)=[(Number of dead nymphs)/(number of tested nymphs)]x100

[2] = test system: brown planthopper (Nilaparvata luqens); test: whole plant or invertebrate; details: in Oryza sativa, second to third instar nymphs, 5th day after release
Description: (§2) Test on effect against brown planthopper (Nilaparvata luqens) Rice seedlings were dipped in a chemical solution of a test compound at a concentration of 200 ppm or 50 ppm. After the chemical solution dried in air, the root was wrapped with wet adsorbent cotton, and the seedlings were put into a test tube. About 10 second to third instar nymphs of brown planthopper were released, the test tube was covered with a gauze, and the test tube was left in a constant temperature chamber with lighting at 25° C. On the 5th day after release, the number of dead nymphs was counted, and the mortality (%) was calculated by the following formula.
Mortality (%)=[(number of dead nymphs)/(number of released nymphs)]×100

[3] = test system: brown planthopper (Nilaparvata luqens); test: Comparative Test Example 1: brown planthopper, rice seedling dip; details: 5th day after release; for mortality at 50 ppm: Active ingredient concentration 50 ppm; for mortality at 200 ppm: Active ingredient concentration 200 ppm
Experimental: as §2, with “Rice” for “Test on effect against brown planthopper (Nilaparvata luqens) Rice”, “planthopper (Nilaparvata luqens)were” for “planthopper were”
The test compounds are Compound No. 2-12 as the compound of the present invention and the following Comparative Compounds (A) and (B) as the comparative compounds.

[4] = test system: two-spotted spider mite (Tetranychus urticae); test: Test Example 3: effects against two-spotted spider mite, kidney bean leaf dip; details: foliar, adults, 3rd day after the application
Experimental: Test on effects against two-spotted spider mite (Tetranychus urticae) In a chemical solution of a test compound at a concentration of 800 ppm, 200 ppm or 50 ppm, a leaf of kidney bean on which about 20 adults of two-spotted spider mite had been released, was dipped. After the chemical solution dried in air, the leaf was left in a constant temperature chamber with lighting at 25° C. On the 3rd day after the application, the number of dead adults was counted, and the mortality (%) was calculated by the following formula. Adults that dropped from the leaf or adults that were moribund were counted as dead adults.

[5] = test system: green peach aphid (Myzus persicae); test: Comparative Test Example 2: green peach aphid, radish leaf dip; details: foliar, 5th day after the application; for mortality at 50 ppm: Active ingredient concentration 50 ppm; for mortality at 200 ppm: Active ingredient concentration 200 ppm
Description: as §1, with “aphid (Myzus persicae)” for “aphid”, “[…].” for “25° C.”
The test compounds were the same as in Comparative Test Example 1.

SMILES | mortality at 200 ppm [1] [%] | mortality at 200 ppm [2] [%] | mortality at 50 ppm [3] [%] | mortality at 200 ppm [3] [%] | mortality at 800 ppm [4] [%] | mortality at 50 ppm [5] [%] | mortality at 200 ppm [5] [%] | mortality at 200 ppm [4] [%]
CCc1nn(-c2ncc(C(F)(F)F)cc2Cl)c(=O)c(-n2ccc(C(F)(F)F)n2)c1O [1-57, 2-[3-chloro-5-(trifluoromethyl)pyridin-2-yl]-6-ethyl-5-hydroxy-4-[3-(trifluoromethyl)-1 H-pyrazol-1-yl]pyridazin-3(2H)-one] | ≥ 90 | ≥ 90 |  |  |  |  |  | 
CCc1nn(-c2ccc(C(F)(F)F)cc2Cl)c(=O)c(-n2ccc(C(F)(F)F)n2)c1O [2-12] | ≥ 90 | ≥ 90 | 100 | 100 | ≥ 80 | 100 | 100 | 
CCc1nn(-c2c(Cl)cc(C(F)(F)F)cc2Cl)c(=O)c(-n2ccc(C(F)(F)F)n2)c1O [2-97, 2-[2,6-dichloro-4-(trifluoromethyl)phenyl]-6-ethyl-5-hydroxy-4-[3-(trifluoromethyl)-1 H-pyrazol-1-yl]pyridazin-3(2H)-one] | ≥ 90 | ≥ 90 |  |  | ≥ 80 |  |  | 
CCc1nn(-c2c(C)cc(S(=O)(=O)C(F)(F)F)cc2C)c(=O)c(-n2ccc(Cl)n2)c1O [2-191, 4-(3-chloro-1 H-pyrazol-1-yl)-2-{2,6-dimethyl-4-[(trifluoromethyl)sulfonyl]phenyl}-6-ethyl-5-hydroxypyridazin-3(2H)-one] | ≥ 90 | ≥ 90 |  |  |  |  |  | 
COCc1nn(-c2c(C)cc(C(F)(F)F)cc2C)c(=O)c(-n2ccc(Cl)n2)c1O [2-444, 4-(3-chloro-1 H-pyrazol-1-yl)-2-[2,6-dimethyl-4-(trifluoromethyl)phenyl]-5-hydroxy-6-(methoxymethyl)pyridazin-3(2H)-one] | ≥ 90 | ≥ 90 |  |  |  |  |  | 
Cc1ccn(-c2c(O)c(C(F)(F)F)nn(-c3c(C)cc(C(F)(F)F)cc3C)c2=O)n1 [2-516, 2-[2,6-dimethyl-4-(trifluoromethyl)phenyl]-5-hydroxy-4-(3-methyl-1 H-pyrazol-1-yl)-6-(trifluoromethyl)pyridazin-3(2H)-one] | ≥ 90 | ≥ 90 |  |  |  |  |  | ≥ 80
CCc1nn(-c2c(C)cc(C(F)(F)F)cc2C)c(=O)c(-n2cnc([N+](=O)[O-])n2)c1O [6-65, 2-[2,6-dimethyl-4-(trifluoromethyl)phenyl]-6-ethyl-5-hydroxy-4-(3-nitro-1 H-1,2,4-triazol-1-yl)pyridazin-3(2H)-one] | ≥ 90 | ≥ 90 |  |  |  |  |  | 
CCc1ncn(-c2c(O)c(C(C)C)nn(-c3c(C)cc(C(F)(F)F)cc3C)c2=O)n1 [6-134, 2-[2,6-dimethyl-4-(trifluoromethyl)phenyl]-4-(3-ethyl-1 H-1,2,4-triazol-1-yl)-5-hydroxy-6-isopropylpyridazin-3(2H)-one] | ≥ 90 | ≥ 90 |  |  |  |  |  | ≥ 80
CCc1nn(-c2c(C)cc(C#N)cc2C)c(=O)c(-n2cnc(Cl)n2)c1O [6-136, 4-[5-(3-chloro-1 H-1,2,4-triazol-1-yl)-3-ethyl-4-hydroxy-6-oxopyridazin-1(6H)-yl]-3,5-dimethylbenzonitrile] | ≥ 90 | ≥ 90 |  |  |  |  |  | 
CCc1nn(C)c(=O)c(-n2ccc(C(F)(F)F)n2)c1O [Comparative compound (A)] |  |  | 0 | 0 |  | 0 | 20 | 
CCc1nn(-c2ccc(C(F)(F)F)cc2Cl)c(=O)c(-c2ccc(F)cc2)c1O [Comparative compound (B)] |  |  | 0 | 0 |  | 0 | 30 | 
